This note sets out measurements from patent publication EP0526936A2, “Cholesterol-lowering agents” (MERCK & CO. INC., priority 1991, dated 1993).

Broadly, the IC50 is the concentration needed to halve the response being measured.

Experiment [1] deals with T1, squalene synthase (Rattus norvegicus, UniProt Q02769).
T1 construct: from tissue; host or cells: liver microsomes of male Charles River CD rats fed 0.1% lovastatin
T1 sequence (Q02769 1-416): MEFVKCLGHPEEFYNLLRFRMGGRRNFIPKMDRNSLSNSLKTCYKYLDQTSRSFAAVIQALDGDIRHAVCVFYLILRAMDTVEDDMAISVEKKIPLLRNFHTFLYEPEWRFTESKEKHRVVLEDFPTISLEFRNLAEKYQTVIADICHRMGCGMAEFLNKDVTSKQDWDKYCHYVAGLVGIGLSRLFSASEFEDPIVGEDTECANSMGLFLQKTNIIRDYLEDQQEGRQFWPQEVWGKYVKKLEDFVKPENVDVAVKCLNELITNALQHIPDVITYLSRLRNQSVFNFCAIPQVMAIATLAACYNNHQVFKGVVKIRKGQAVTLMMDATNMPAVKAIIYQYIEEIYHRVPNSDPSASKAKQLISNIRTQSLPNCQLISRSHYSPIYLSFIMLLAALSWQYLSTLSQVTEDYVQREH
Put plainly: Squalene synthase assay, rat liver microsomes. Format: biochemical, rats. The settings on record: [4-14C]farnesyl-pyrophosphate, 20 minutes at 30 °C. Here is the method: Alternatively, the intrinsic squalene synthase inhibitory activity of the compounds formed in the fermentation of the microorganisms of the present invention may be measured by the standard in vitro protocol described below:
Male, CHARLES RIVER@ CD rats (120 to 150 g) were fed a diet containing 0.1% lovastatin for 4 days. The livers from these rats were homogenized in 5 volumes (mL/g) of ice cold 50 mM HEPES (4-(2-hydroxyethyl)-1-piperazine-ethanesulfonic acid), 5 mM EDTA(ethylenediaminetetraacetic acid) pH 7.5 with a Potter-Elvehjem type tissue grinder. The homogenate was centrifuged twice at 20,000 x g for 15 min. at 4°C, discarding the pellet each time. The supernatant was then centrifuged at 100,000 x g for 1 hr at 4°C. The resulting microsomal pellet was resuspended in a volume of the above homogenizing buffer equal to one-fifth the volume of the original homogenate. This microsomal preparation has a protein concentration of about 7 mg/mL. The microsomal suspensions were stored in aliquots at -70 °C. Squalene synthase activity in these aliquots is stable for a least several months. […]
This assay mix was degassed under a vacuum and flushed with N2. […] Ten mL of scintillation fluid was added to the heptane solution and radioactivity was determined by liquid scintillation counting.
(§1) Percent inhibition is calculated by the formula: [formula]
(In general: Liver microsomes are a subcellular fraction often used to study metabolism.)

A further experiment deals with Farnesyl Transferase (Homo sapiens, UniProt P49356). The experiment in a line: Farnesyl-transferase assay (inhibition of Ras farnesylation in vitro). Format: biochemical. The settings on record: ras-CVLS 3 μM, 60 min at room temperature. Here is the method: FARNESYL-TRANSFERASE ASSAY
100 µL of 0.5 M DTT was added to 900 µL of 1.1 M HEPES, pH 7.5 and 55.5 mM MgCl2 to yield a 10X buffer consisting of 1.0 M HEPES, pH 7.5, 50 mM MgCl2 and 50 mM DTT.
The reaction mix was prepared as below:
A Blank reaction mix was also prepared with the negative control ras-protein, and the Total/Sample reaction mix received the ras-CVLS. The same volumes were used to prepare the Blank reaction mix as those in Table 1.
The farnesyl trasferase solution was prepared as shown below. The farnesyl transferase mix was prepared right before use.
• i. The assay volume was 100 µL, the volume of sample to be tested was 5 µL and the time of incubation is 60 min at room temperature. • ii. The TECAN 8000/505, an automatic pipetting station, added 50 µL of water plus 5 µL of sample to the assay tubes. • iii. The ras-CVLS reaction mix (20 µL) was manually added to totals and unknowns. The negative control ras-protein reaction mix (20 µL) was manually added to the blank tubes. • iv. The farnesyl transferase mix (25 µL) was manually added to all tubes to initiate the reaction and the assay tubes were kept at room temperature for 60 min. • v. The assay was stopped placing the assay tubes in an ice bath for 5 minutes. • vi. 1.0 mL of 1.0 M HCI in 100% ethanol was then added to each tube. The assay tubes (uncapped) were incubated at 37 ° C for 60 min. to facilitate the hydrolysis of the FPP. • vii. Assay tubes were harvested through a TOMTEC 96-well harvestor (6 x 16 with extended tips, or SKATRON cell harvestor) onto LKB double thickness filter mats. • viii. The cell harvestor was adjusted so that each well was washed with 10 mL of 100% ethanol. • ix. Filter mats were baked in microwave oven for 6-8 min. to dry the filtermats. • x. The filter mats were placed in counting bags, 30 mL of LKB ,8-scint cocktail was added and the filter mats were counted for 120 sec. in the LKB β-plate counter.
Percent inhibition was calculated according to the following equation: [formula] […]

In experiment [2] the target is T2, squalene synthase (Saccharomyces cerevisiae, UniProt P29704).
T2 construct: The pellet fractions were suspended at 10-20 mg/ml protein in breakage buffer containing 25% glycerol; endogenous in cells; host or cells: S. cerevisiae W303-1A
T2 sequence (P29704 1-444): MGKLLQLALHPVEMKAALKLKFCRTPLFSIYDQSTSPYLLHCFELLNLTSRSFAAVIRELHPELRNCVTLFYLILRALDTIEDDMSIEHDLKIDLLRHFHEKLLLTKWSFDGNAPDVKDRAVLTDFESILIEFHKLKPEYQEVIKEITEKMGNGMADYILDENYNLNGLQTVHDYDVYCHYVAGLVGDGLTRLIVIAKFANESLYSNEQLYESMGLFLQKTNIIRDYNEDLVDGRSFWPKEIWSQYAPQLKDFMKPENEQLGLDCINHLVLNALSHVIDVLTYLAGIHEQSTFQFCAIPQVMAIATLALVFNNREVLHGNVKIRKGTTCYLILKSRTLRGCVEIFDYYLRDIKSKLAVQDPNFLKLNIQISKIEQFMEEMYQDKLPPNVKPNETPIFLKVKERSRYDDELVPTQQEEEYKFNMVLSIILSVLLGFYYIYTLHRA
Put plainly: Squalene synthase assay, yeast enzyme. The settings on record: yeast enzyme preparation; 12 min preincubation, 12 min reaction at 30 °C; read-out: Squalene Synthase Inhibition IC50 Yeast Enzyme (converted). Format: biochemical, S. cerevisiae W303-1A. How it is done:
(§2) The intrinsic squalene synthase inhibitory activity of representative compounds of this invention was measured by the standard in vitro protocol described below:
S. cerevisiae W303-1A (MATa ade2-1 canl-100 his3-11,15 leu2-3,112 trp1-1 ura3-1) was grown at 30 ° C for 24 hours in YPD medium ([…], 2% glucose) supplemented with 20 µg/mL adenine. The cells were washed and resuspended in a minimal volume of breakage buffer (100 mM KP04, pH 7.4, 3 mM DTT, 1 mM PMSF). The cells were added to the small chamber of the Bead-Beater Cell Disrupter (Biospec Products, Bartlesville, OK) containing 100 g of 0.5 mm glass beads. Buffer was added to fill the chamber. The sealed chamber was packed in ice and processed for 4 cycles of 30 sec with 2 min. cooling between cycles. Cell breakage was determined to be >90% by phase-contrast microscopy. The glass beads were removed by Whatman filter paper and the filtrate collected into an ice- immersed filter flask. The extract was centrifuged at 1500 x g for 10 min at 4°C. The pellet (P1) containing unbroken cells and cell walls was discarded. The supernatant (S1) was centrifuged at 30000 x g for 30 min at 4°C. The pellet (P2) contained about two-thirds of the total squalene synthase activity. The supernatant (S2) can be centrifuged at 100,000 x g for 60 min at 4°C to pellet the remaining activity (P3). The pellet fractions were suspended at 10-20 mg/ml protein in breakage buffer containing 25% glycerol. The activity was stable for several months at -80 ° C.
(§3) Reactions were performed in 1.2 mL polypropylene tube strips of eight. […] The reaction product was extracted with 0.4 mL heptane containing 0.4 µL carrier squalene 0.2 mL of the heptane extract was counted by liquid scintillation. […]
as §1
lC50 values were determined by plotting the log of the concentration of the test compound versus the percentage inhibition. […]

Experiment [3] concerns the target T3, squalene synthase (Homo sapiens, UniProt P37268).
T3 construct: The HepG2 enzyme preparation was centrifuged at 34,000 rpm to separate the cytosol and microsomal enzymes; host or cells: HepG2
T3 sequence (P37268 1-417): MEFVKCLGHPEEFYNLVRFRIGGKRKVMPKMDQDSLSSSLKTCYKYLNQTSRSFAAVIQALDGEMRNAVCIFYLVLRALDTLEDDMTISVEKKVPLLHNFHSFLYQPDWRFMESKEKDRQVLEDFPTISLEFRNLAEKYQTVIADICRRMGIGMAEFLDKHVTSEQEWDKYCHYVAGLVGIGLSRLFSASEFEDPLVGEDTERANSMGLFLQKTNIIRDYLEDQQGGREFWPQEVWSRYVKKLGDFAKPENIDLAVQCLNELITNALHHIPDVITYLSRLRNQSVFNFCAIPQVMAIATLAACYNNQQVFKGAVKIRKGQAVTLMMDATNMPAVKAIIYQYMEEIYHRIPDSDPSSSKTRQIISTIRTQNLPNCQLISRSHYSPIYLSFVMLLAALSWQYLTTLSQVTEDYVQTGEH
The experiment in a line: Squalene synthase assay, HepG2 cell enzyme. Format: biochemical. The note with it: HepG2 enzyme preparation; 12 min preincubation, 12 min reaction at 30 °C; read-out: Squalene Synthase Inhibition IC50 HepG2 Enzyme (converted). How it is done: as §2
1. SOURCE: HEPG2 CELL LINE (Liver, hepatoblastoma, Human) ATCC No. HB 8065
Culture Medium: Minimum essential medium (MEM) with non-essential amino acids, sodium pyruvate, and 10% fetal bovine serum. The medium was changed twice weekly. […] The growth medium was prepared as listed below.
SUBCULTURE PROCEDURE: The medium was removed and washed with PBS (Phosphate-Buffered Saline 15.6 mM, pH 7.0). Fresh trypsin (0.25%)-EDTA (0.02%) with Hank's Balanced Salt solution was added and the flask was allowed to stand for a minute before the trypsin solution was removed. The flask was incubated at 370 C until cells detached. Fresh medium was added and the cells were dispersed and dispensed into new flasks. Subcultivation ratio: 1:6.
PREPARATION OF DELIPIDATED SERUM: Fetal calf serum (100 ml) and CAB-O-Sil (2 grams) were stirred overnight at 4°C and centrifuged at 16,000 rpm for 5 hrs. The supernantant was filtered and the serum was stored at 4 C.
48 hrs. prior to harvest, cells grown in MEM with 10% Fetal Calf serum were switched to MEM with 10% delipidated serum.
HARVEST: The medium was removed and the cells were washed with PBS. Fresh trypsin (0.25%)-EDTA (0.02%) with Hanks' Balanced Salt solution was added and allowed to stand and removed. The flask was incubated at 37 C until the cells detached. MEM medium (6 mL/flask) was added to suspend cells and combined into a centrifuge tube. […] Cells were counted ([…] yield from 18 flasks (75 cm^2)), and resuspended in 10 mL of 50mM HEPES (N-[2-Hydroxyethyl]piperazine-N'-[2-ethane-sulfonic acid]) containing 5mM MgCI2, 2mM MnCI2, 10mM DTT, pH 7.5 (enzyme suspension buffer). […]
as §3
Percent inhibition is calculated by the formula: [formula] […]

Consider `CCCCCCCC(=O)CCCCCC/C=C/C(C(=O)NC(Cc1ccc(O)cc1)C(=O)O)C(O)(CC(=O)O)C(=O)O` (stereo not shown) [Compound A], for which the IC50 against squalene synthase [1] was 15 µM; against Farnesyl Transferase, 8 µM; at squalene synthase [2] it was 12.7 µM; on squalene synthase [3] it was 70.3 µM.

`CCCCCCCC(=O)CCCCCC/C=C/C(C(=O)NC(Cc1ccccc1)C(=O)O)C(O)(CC(=O)O)C(=O)O` (stereo not shown) [Compound C]: the IC50 against Farnesyl Transferase is 4.5 µM; at squalene synthase [2] it was 1.74 µM; at squalene synthase [3] it was 33.5 µM.

Take `CCCCCCCC(=O)CCCCCC/C=C/C(C(=O)NC(Cc1c[nH]c2ccccc12)C(=O)O)C(O)(CC(=O)O)C(=O)O` (stereo not shown) [Compound D]: the half-inhibitory concentration (IC50) on Farnesyl Transferase was 3.3 µM; on squalene synthase [2], 0.358 µM; at squalene synthase [3] it was 0.472 µM.
